Assays:
[1] = system: BMRPA1 cells; assay: NNK exposure: effects on BMRPA1 morphology; assay type: cell-based, rat; details: for cytotoxic changes: one 16 hour exposure
Protocol: All preparations of the carcinogen-containing media were made in a separate laboratory within a NCI-designed and certified chemical hood using prescribed protective measures. 4-(N-nitrosmethylamino)-1-(3-pyridyl)-1-butanone (NNK, American Health Foundation, N.Y.) was prepared as a stock solution of 10 mg NNK in PBS and added to FBS-free cRPMI to make final concentrations of 100, 50, 10, 5, and 1 μg/mil. BMRPA1 cells at passage 36 (p36) were seeded at 10^5/60 mm TCDs and allowed to grow for 6 d. At this time the medium was removed, and the cells were washed 2× with prewarmed (37° C.), FBS-free cRPMI before they were treated with FBS-free cRPMI (4 ml/TCD) containing the different concentrations of NNK. A 6th set of TCDs containing BMRPA1 cells was incubated in FBS-free cRPMI without NNK and was used as controls. The eight TCDs used for each of the six sets of different culture conditions were returned to the 37° C. and 95% air-5% CO2 incubator. After 16 h, the NNK-containing medium was removed from all TCDs and the cells were washed 3× with PBS followed by addition of fresh cRPMI-10% FBS (4 ml/TCD), and the incubation continued. Control cultures without NNK were processed in parallel. The cells were fed every 2 d by replacing ½ of the spent medium with fresh cRPMI-10% FBS. At full confluency the cells were collected from all TCDs, the cells in each group were pooled, and passaged at 2×10^4 into fresh TCDs.
With the purpose of determining whether such changes are induced by a single exposure to NNK and at relatively small NNK concentrations, BMRPA1 cells were exposed for one 16 hour period to serum free medium containing 100, 50, 10, 5, and 1 μg NNK/mL. […] Furthermore, the gradual pace of these changes at 1 μg/mL allows a passage by passage study of both early and late events in the process of NNK-induced transformation. Thus, the results presented below were obtained with BMRPA1 cells exposed once for 16 h to 1 μg NNK/mL FBS-free medium.

[2] = system: BMRPA1 cells; assay: Anchorage independent colony formation on agar; assay type: cell-based, rat; details: NNK-treated BMRPA1 cells; days after seeding 9; 30 sequential 1 mm^2 fields, average of 5 TCFs ± SEM
Protocol: Aliquots of 4 ml of 0.5% agar-medium mixture (agar was autoclaved in 64 mL H2O, cooled in a water bath to 50° C., and added to 15 mL 5× cRPMI, 19 mL FBS and 1 mL P/S) were poured into 25 cm^2 TCFs and allowed to harden overnight at 4° C. Prior to plating the cells, the flasks were placed in the COT-Air incubator for up to 5 h at 37° C. to facilitate equilibration of pH and temperature. Cells were collected by Trypsin-EDTA, 0.1 mL, of cell suspension (40000/mL cells in cRPMI) was dispersed carefully over the agar surface of each flask and the cultures were returned to the 37° C. incubator with […]-5% CO2. After 24 h, the agar-coated TCFs were inverted to allow drainage of excess medium. The cultures were examined microscopically after 9 d and 14 d for growth of colonies using a Zeiss inverted microscope.
The ability of the cloned BMRPA.1NNK and untreated BMRPA1 cells to grow on agar was examined by dispersing cells at low density onto soft agar (see Example 1).

[3] = system: Nu/Nu mice; assay: Tumorigenicity in Nu/Nu mice; assay type: in vivo, mouse; details: 10^7 cloned BMRPA1.NNK cells injected s.c.
Protocol: Nu/Nu mice (7 wks of age) were obtained from Harlan laboratories (Indianapolis, Ind.). The cells used for injection were released by Trypsin-EDTA, washed in cRPMI, and resuspended in PBS at 10^8 cells/mL. Each mouse tested was injected subcutaneously (s.c.) with 0.1 ml of this cell suspension. The animals were inspected for tumor development daily during the first 4 weeks, and thereafter at weekly intervals. Small pieces of the tumors (1-2 mm.) were cut from the core of the tumors and placed in 4% pafaformaldehyde overnight at 4 C. The tissue was then washed in PBS, and placed in 30% sucrose for another 24 h. Sections of tumor tissue frozen in Lipshaw embedding matrix (Pittsburgh, Pa.) were made with a Jung cryostat (Leica), placed on gelatin coated slides, and stored at −20 C. H&E staining was done according to standard procedures.
Cells growing on agar often have the ability to grow as tumors in Nu/Nu mice (Shin et al., 1975; Colburn et al., 1978). The ability of cells to grow in Nu/Nu mice as tumors is believed to be a strong indication of malignant transformation (Chung, 1986). Consequently, 10^7 cloned, live BMRPA1.NNK cells were injected subcutaneously (s.c.) in the posterior flank region of Nu/Nu mice. Another group of mice was injected s.c. under similar conditions with untransformed BMRPA1 cells. […]

[4] = system: BMRPA1 cells; assay: BrdU incorporation (FACS); assay type: cell-based, rat; details: NNK-treated vs untransformed BMRPA1 cells
Protocol: Cells (5×10^4) were plated in 60 mm TCD, and allowed to grow in cRPMI-10% FBS. […] Briefly, 10^6 trypsin-EDTA released cells were washed twice in PBS-1% BSA, fixed in 70% ethanol for 30 min, and resuspended in RNAase A (0.1 mg/mL) for 30 min at 37° C. After washing the cells, their DNA was denatured with 2N HCl/Triton X-100 for 30 min, and neutralized with 0.1 M Na2B4O7.10H2O, pH 8.5. The cells were then washed in PBS-1% BSA with 0.5% Tween 20, and resuspended in 50 uL of 0.5% Tween in PBS-1% BSA solution with 20 uL of FITC-AntiBrdU antibody. After 45 min at 37° C., the cells were washed, resuspended in 1 mL of Na Citrate buffer containing Propidium Iodide (0.005 mg/mL) and RNAase A (0.1 mg/mL). Fluorescent activated cell sorting or flow cytometry (FACS) analysis to detect the incorporated BrdU and PI staining was performed by using a FACScan analyzer from Becton Dickinson Co. equipped with an Argon ion laser using excitation wavelength of 488 nm. Data analysis was performed using the LYSYS II program.
The measurement of BrdU incorporation in RNAase treated cells is routinely used to assess DNA synthesis during the S phase of proliferating cells (Alberts B., Johnson, A., Lewis, J., Raff, M., Roberts, K., Walter, P., 2002, Molecular Biology of the Cell. Garland Science, Taylor and Francis, 4th ed., NY). […]

[5] = system: BMRPA1 cells; assay: Cell growth at reduced serum (crystal violet assay); assay type: cell-based, rat; details: NNK-transformed vs untreated BMRPA1 cells, 12 days
Protocol: To measure cell growth at 10% FBS, cells were seeded at 5×10^4 cell/60 mm TCD containing 4 ml of cRPMI-10% FBS. Every 3 d, triplicate TCDs were removed for each cell line under study, the cells were released with trypsin-EDTA, and counted in the presence of trypan blue. To assess the effect of cRPMI containing reduced FBS concentrations on cell growth, equal numbers (1.5×10^4 cell/ml/well) of NNK-treated and untreated BMRPA1 cells were seeded in triplicate wells of 24 well TCDs. The cells were allowed to adhere overnight in cRPMI 10% FBS, washed with PBS, and reincubated with cRPMI containing the indicated % FBS. Cell growth was evaluated by a modification of the crystal violet relative proliferation assay (Serrano, 1997). Briefly, the cells were washed with PBS, fixed in 10% buffered formalin followed by rinsing with distilled water. The cells were then stained with 0.1% Crystal Violet for 30 min at room temperature (RT), washed with dH2O, and dried. The cell-associated dye was extracted with 1 ml 10% acetic acid, aliquots were diluted 1:2 with dH2O, and transferred to 96-well microtiter plates for OD600nm measurements. The cell growth was calculated relative to the OD600nm values read at 24 h. […]

SMILES: CN(CCCC(=O)c1cccnc1)N=O [NNK, 4-(methyl-nitrosamino)-1-(3-pyridyl)-1-butanone]
- phenotypical changes (neoplastic transformation) ([1]; 1 μg/ml, slower rate, over several weeks): phenotypical changes characteristic of neoplastic transformation
- cytotoxic changes ([1]; 5, and 1 μg NNK/mL): considerably less
- phenotypical changes (neoplastic transformation) ([1]; 100, 50, 10 μg NNK/ml, within a week): phenotypical changes indicative of neoplastic transformation
- cytotoxic changes ([1]; larger concentrations (100, 50, 10 μg NNK/mL), serum free medium): cylotoxic changes
- # of colonies* formed <50 cells [2]: 14
- # of colonies* formed >50 cells [2]: 15.8 ± 2.5
- # of colonies* formed Total [2]: 17.3 ± 5.2
- # of mice with metastasis/# of mice tested [3]: 1/6
- # of mice with tumor/# of mice tested [3]: 3/6
- proliferative changes (BrdU incorporation) [4]: permanent hyperproliferative changes
- cell growth at 1%, 5%, and 10% FBS [5]: selective growth advantage

Reference: patent publication US20170022288A9, “PANCREATIC CANCER ASSOCIATED ANTIGEN, ANTIBODY THERETO, AND DIAGNOSTIC AND TREATMENT METHODS” (priority 2003, published 2017)
